Values after ≈ are worked out from the molar mass of the structure shown. Where a name gives a salt, the structure may show the parent alone. Read-outs that look alike come from different tables or passages of the source.
Legend:
Type in all cases: cell-based, Plasmodium falciparum
[1] = test system: P. falciparum W2 (CDC/Indochina III, W-2); test: In vitro screening protocol I, [3H]-hypoxanthine incorporation, W2; details: for IC50: Plasmodium falciparum
From the text: (§1) Agents Chemother. 27 (4) (1985) 525-530). The system was limited to the assessment of the intrinsic activity against the erythrocytic asexual life cycle (blood schizontocides). Two Plasmodium falciparum clones from CDC/Indochina III (W-2) and CDC/Sierra Leone I (D-6) (Oduola A M, Weatherly N F, Bowdre J H, Desjardins R E. Plasmodium falciparum: cloning by single-erythrocyte micromanipulation and heterogeneity in vitro. Exp Parasitol. 66 (1) (1988) 86-95) were used for all assays. TM91C235, a multiple drug resistant isolate from Thailand (Antimicrob. Agents Chemother. 46 (8) (2002) 2627 and Antimicrob. Agents Chemother. 43 (3) (1999) 598-602), was used for the prescreening assay. W-2 is resistant to chloroquine, quinine, and pyrimethamine and susceptible to mefloquine. D-6 tends to be more resistant to mefloquine and susceptible to chloroquine, quinine, and pyrimethamine. All documents cited in this paragraph are incorporated by reference in their entirety.
(§2) All parasites were maintained in continuous long term cultures in RPMI-1640 medium supplemented with 6% washed human A positive (A+)(erythrocytes, 25 mM Hepes, […], and 10% heat inactivated A+ human plasma or ALBUMAX® (lipid-rich bovine serum albumin; Invitrogen, Carlsbad, Calif.). All cultures and assays were conducted at 37° C. under an atmosphere of 5% CO2 and 5% O2, with a balance of N2.
(§3) The prescreening assay uses TM91C235 diluted at a 0.4% parasitemia in a 1% hematocrit in folic acid free and p-aminobenzoic acid free media RPMI-1640 and ALBUMAX®. […] The compound is further diluted in folate free (FF) culture medium with ALBUMAX® for the first initial starting concentration. The rest of the stock drug solution was kept at −70° C. The isolate was preexposed, in duplicate, at three concentrations (25,000 ng/ml, 2,500 ng/ml, and […]) of the test compound for 48 hr in a 96-well microtiter plate (MTP) using the BIOMEK® 2000 automated laboratory workstation. Each MTP contains chloroquine as control to assess the relative activity of the compound and to monitor the response of TM91C235.
(§4) After the preincubation, [^3H]-hypoxanthine was added to each well of the MTP. (The assay relies on the incorporation of radiolabeled hypoxanthine by the parasites, which indicates reproduction, and inhibition of isotope incorporation was attributed to activity of known or candidate antimalarial drugs). After 72 hours of total incubation time, the MTP were frozen to lyse the erythrocytes and parasites. The parasite DNA was recovered by harvesting the lysate onto glass-fiber filter plates using a Packard FilterMate™ Cell Harvester. The radioactivity was counted on a Packard TopCount™ microplate scintillation counter.
(§5) The serial dilution assay was conducted using the same assay conditions and stock solution of the compound used for the preliminary screen, described above. Both the D-6 and the W-2 clones were used. The compounds were diluted two-fold over 11 different concentration ranges with a starting concentration that was based on the preliminary screen. For each drug, the concentration response profile was determined and 50% inhibitory concentrations (IC50) were determined by using a non-linear, logistic dose response analysis program. […] For each assay, the IC50 for each clone was determined against the known antimalarials chloroquine and mefloquine. These control values established the compound's relative parasite susceptibility profile compared to known antimalarials. […]

[2] = test system: P. falciparum D6 (CDC/Sierra Leone I, D-6); test: In vitro screening protocol I, [3H]-hypoxanthine incorporation, D6; details: for IC50: Plasmodium falciparum
From the text: as §1, §2, §3, §4, §5

[3] = test system: P. falciparum TM91C235; test: In vitro screening protocol I, [3H]-hypoxanthine incorporation, TM91C235; details: for IC50: Plasmodium falciparum, read-out: IC50 TM91C235
From the text: as §1, §2, §3, §4, §5

[4] = In vitro screening protocol I, P. falciparum W2
[5] = In vitro screening protocol I, P. falciparum D6
[6] = In vitro screening protocol I, P. falciparum TM91C235
[7] = In vitro screening protocol I, P. falciparum W2, read-out: IC50 W2
[8] = In vitro screening protocol I, P. falciparum D6, read-out: IC50 D6

Compound | IC50 [1, 7] | IC50 [2, 8] | IC50 [3, 6] | also measured
CCC1OC(=O)C(C)C(O)C(C)C(O)C(C)(O)CC(C)CN(CCCNCc2cnc3ccccc3c2)C(C)C(O)C1(C)O (stereo not drawn) [Example 6, 9a-{3-[(Quinolin-3-yl-methyl)amino]propyl}-3-O-decladinosyl-5-O-dedesosaminyl-9-deoxo-9-dihydro-9a-aza-9a-homoerythromycin A] | – | – | – | IC50 W2 [1, 4]: C (200 < X ≦ 1000); IC50 D6 [2, 5]: F (2800 < X ≦ 3500); IC50 TM91C235 [3, 6]: D (1000 < X ≦ 2500)
CC[C@H]1OC(=O)[C@H](C)[C@@H](O)[C@H](C)[C@@H](O[C@@H]2O[C@H](C)C[C@H](N(C)C)[C@H]2O)[C@](C)(O)C[C@@H](C)CN(CCCNCc2cnc3ccccc3c2)[C@H](C)[C@@H](O)[C@]1(C)O [Example 5, 9a-{3-[(Quinolin-3-yl-methyl)amino]propyl}-3-O-decladinosyl-9-deoxo-9-dihydro-9a-aza-9a-homoerythromycin A] | 0.1 to 0.2 µg/mL (≈ 0.129 to 0.258 µM) | 0.2 to 1 µg/mL (≈ 0.258 to 1.29 µM) | 0.1 to 0.2 µg/mL (≈ 0.129 to 0.258 µM) | –
CC[C@H]1OC(=O)[C@H](C)[C@@H](O[C@H]2C[C@@](C)(OC)[C@@H](O)[C@H](C)O2)[C@H](C)[C@@H](O[C@@H]2O[C@H](C)C[C@H](N(C)C)[C@H]2O)[C@](C)(O)C[C@@H](C)CN(CCCNCc2ccccc2)[C@H](C)[C@@H](O)[C@]1(C)O [Example 52, 9a-{3-[(Phenylmethyl)amino]propyl}-9-deoxo-9-dihydro-9a-aza-9a-homoerythromycin A] | – | – | – | IC50 ([1]; W2, read-out: IC50 W2): < 0.1 µg/mL; IC50 ([2]; D6, read-out: IC50 D6): 0.2 to 1 µg/mL (≈ 0.227 to 1.13 µM); IC50 [3]: < 0.1 µg/mL
CC[C@H]1OC(=O)[C@H](C)[C@@H](O)[C@H](C)[C@@H](O[C@@H]2O[C@H](C)C[C@H](N(C)C)[C@H]2O)[C@](C)(O)C[C@@H](C)CN(CCCNc2ccnc3ccccc23)[C@H](C)[C@@H](O)[C@]1(C)O [Example 24, 9a-[3-(Quinolin-4-yl-amino)propyl]-3-O-decladinosyl-9-deoxo-9-dihydro-9a-aza-9a-homoerythromycin A] | 0.1 to 0.2 µg/mL (≈ 0.131 to 0.263 µM) | 0.1 to 0.2 µg/mL (≈ 0.131 to 0.263 µM) | 0.2 to 1 µg/mL (≈ 0.263 to 1.31 µM) | –
CC[C@H]1OC(=O)[C@H](C)[C@@H](O[C@H]2C[C@@](C)(OC)[C@@H](O)[C@H](C)O2)[C@H](C)[C@@H](O[C@@H]2O[C@H](C)C[C@H](N(C)C)[C@H]2O)[C@](C)(O)C[C@@H](C)CN(CCCNCc2ccnc3ccccc23)[C@H](C)[C@@H](O)[C@]1(C)O [Example 14, 9a-{3-[(Quinolin-4-yl-methyl)amino]propyl}-9-deoxo-9-dihydro-9a-aza-9a-homoerythromycin A] | – | – | – | IC50 W2 [1, 4]: B (100 < X ≦ 200); IC50 D6 [2, 5]: B (100 < X ≦ 200); IC50 TM91C235 [3, 6]: B (100 < X ≦ 200)
CC[C@H]1OC(=O)[C@H](C)[C@@H](O)[C@H](C)[C@@H](O)[C@](C)(O)C[C@@H](C)CN(CCCNCc2ccc3ccccc3n2)[C@H](C)[C@@H](O)[C@]1(C)O [Example 3, 9a-{3-[(Quinolin-2-yl-methyl)amino]propyl}-3-O-decladinosyl-5-O-dedesosaminyl-9-deoxo-9-dihydro-9a-aza-9a-homoerythromycin A] | 0.2 to 1 µg/mL (≈ 0.324 to 1.62 µM) | 3.5 to 5 µg/mL (≈ 5.67 to 8.09 µM) | 1 to 2.5 µg/mL (≈ 1.62 to 4.05 µM) | –
CC[C@H]1OC(=O)[C@H](C)[C@@H](O[C@H]2C[C@@](C)(OC)[C@@H](O)[C@H](C)O2)[C@H](C)[C@@H](O[C@@H]2O[C@H](C)C[C@H](N(C)C)[C@H]2O)[C@](C)(O)C[C@@H](C)CN(CCCNCc2ccncc2)[C@H](C)[C@@H](O)[C@]1(C)O [Example 10, 9a-{3-[(Pyridine-4-yl-methyl)amino]propyl}-9-deoxo-9-dihydro-9a-aza-9a-homoerythromycin A] | – | – | – | IC50 W2 [1, 4]: C (200 < X ≦ 1000); IC50 D6 [2, 5]: C (200 < X ≦ 1000); IC50 TM91C235 [3, 6]: C (200 < X ≦ 1000)
CC[C@H]1OC(=O)[C@H](C)[C@@H](O[C@H]2C[C@@](C)(OC)[C@@H](O)[C@H](C)O2)[C@H](C)[C@@H](O[C@@H]2O[C@H](C)C[C@H](NC)[C@H]2O)[C@](C)(O)C[C@@H](C)CN(CCCNc2ccnc3cc(Cl)ccc23)[C@H](C)[C@@H](O)[C@]1(C)O [Example 21B, 9a-{3-[(7-Chloro-quinolin-4-yl)amino]propyl}-3′N-demethyl-9-deoxo-9-dihydro-9a-aza-9a-homoerythromycin A] | 0.1 to 0.2 µg/mL (≈ 0.106 to 0.213 µM) | 0.1 to 0.2 µg/mL (≈ 0.106 to 0.213 µM) | < 0.1 µg/mL | –

Continued, in another order:

IC50 [1, 7] | IC50 [2, 8] | IC50 [3, 6] | Compound | also measured
< 0.1 µg/mL | 0.2 to 1 µg/mL (≈ 0.223 to 1.12 µM) | < 0.1 µg/mL | CC[C@H]1OC(=O)[C@H](C)[C@@H](O[C@H]2C[C@@](C)(OC)[C@@H](O)[C@H](C)O2)[C@H](C)[C@@H](O[C@@H]2O[C@H](C)C[C@H](N(C)C)[C@H]2O)[C@](C)(O)C[C@@H](C)CN(CCCNCCc2ccccc2)[C@H](C)[C@@H](O)[C@]1(C)O [Example 20, 9a-{3-[(2-Phenylethyl)amino]propyl}-9-deoxo-9-dihydro-9a-aza-9a-homoerythromycin A] | –
0.2 to 1 µg/mL (≈ 0.226 to 1.13 µM) | 1 to 2.5 µg/mL (≈ 1.13 to 2.83 µM) | 1 to 2.5 µg/mL (≈ 1.13 to 2.83 µM) | CC[C@H]1OC(=O)[C@H](C)[C@@H](O[C@H]2C[C@@](C)(OC)[C@@H](O)[C@H](C)O2)[C@H](C)[C@@H](O[C@@H]2O[C@H](C)C[C@H](N(C)C)[C@H]2O)[C@](C)(O)C[C@@H](C)CN(CCCNCc2ccccn2)[C@H](C)[C@@H](O)[C@]1(C)O [Example 18, 9a-{3-[(Pyridin-2-yl-methyl)amino]propyl}-9-deoxo-9-dihydro-9a-aza-9a-homoerythromycin A] | –
< 0.1 µg/mL | 0.1 to 0.2 µg/mL (≈ 0.104 to 0.208 µM) | < 0.1 µg/mL | CC[C@H]1OC(=O)[C@H](C)[C@@H](O[C@H]2C[C@@](C)(OC)[C@@H](O)[C@H](C)O2)[C@H](C)[C@@H](O[C@@H]2O[C@H](C)C[C@H](N(C)C)[C@H]2O)[C@](C)(O)C[C@@H](C)CN(CCC(=O)N[C@@H](C)c2cccc3ccccc23)[C@H](C)[C@@H](O)[C@]1(C)O [Example 42] | –
0.2 to 1 µg/mL (≈ 0.223 to 1.12 µM) | 0.2 to 1 µg/mL (≈ 0.223 to 1.12 µM) | 0.2 to 1 µg/mL (≈ 0.223 to 1.12 µM) | CC[C@H]1OC(=O)[C@H](C)[C@@H](O[C@H]2C[C@@](C)(OC)[C@@H](O)[C@H](C)O2)[C@H](C)[C@@H](O[C@@H]2O[C@H](C)C[C@H](N(C)C)[C@H]2O)[C@](C)(O)C[C@@H](C)CN(CCC(=O)NCc2ccccc2)[C@H](C)[C@@H](O)[C@]1(C)O [Example 38] | –
0.1 to 0.2 µg/mL (≈ 0.108 to 0.216 µM) | 0.2 to 1 µg/mL (≈ 0.216 to 1.08 µM) | 0.1 to 0.2 µg/mL (≈ 0.108 to 0.216 µM) | CC[C@H]1OC(=O)[C@H](C)[C@@H](O[C@H]2C[C@@](C)(OC)[C@@H](O)[C@H](C)O2)[C@H](C)[C@@H](O[C@@H]2O[C@H](C)C[C@H](N(C)C)[C@H]2O)[C@](C)(O)C[C@@H](C)CN(CCC(=O)NCCCc2ccccc2)[C@H](C)[C@@H](O)[C@]1(C)O [Example 40] | –
0.1 to 0.2 µg/mL | 0.2 to 1 µg/mL | < 0.1 µg/mL | CC[C@H]1OC(=O)[C@H](C)[C@@H](O[C@H]2C[C@@](C)(OC)[C@@H](O)[C@H](C)O2)[C@H](C)[C@@H](O[C@@H]2O[C@H](C)C[C@H](N(C)C)[C@H]2O)[C@](C)(O)C[C@@H](C)CN(CCCNC(=O)[C@H](C)c2ccc3cc(OC)ccc3c2)[C@H](C)[C@@H](O)[C@]1(C)O [Example 32, 9a-[3-({(2S)-2-[6-(methyloxy)-naphthalen-2-yl]propanoyl}amino)propyl]-9a-aza-9-deoxo-9-dihydro-9a-homoerythromycin A Formiate Salt] | –
< 0.1 µg/mL | 0.1 to 0.2 µg/mL (≈ 0.107 to 0.214 µM) | < 0.1 µg/mL | CC[C@H]1OC(=O)[C@H](C)[C@@H](O[C@H]2C[C@@](C)(OC)[C@@H](O)[C@H](C)O2)[C@H](C)[C@@H](O[C@@H]2O[C@H](C)C[C@H](N(C)C)[C@H]2O)[C@](C)(O)C[C@@H](C)CN(CCCNCc2ccc3ccccc3n2)[C@H](C)[C@@H](O)[C@]1(C)O [Example 1, 9a-{3-[(Quinolin-2-yl-methyl)amino]propyl}-9-deoxo-9-dihydro-9a-aza-9a-homoerythromycin A] | –
